Results on 26 molecules are retold here after US12528773B2, “Non-lysosomal glucosylceramidase inhibitors and uses thereof” (ALECTOS THERAPEUTICS INC., priority 2020, dated 2026).

The pIC50 is the IC50 on a negative log10 scale, so that one unit is a factor of ten.

Assay [1] concerns rat intestinal alpha-glucosidases. Briefly: Inhibition of rat intestinal alpha-glucosidases (rat intestinal lysate, glucose detection). It is filed as biochemical. Conditions: compound concentration 25 μM, sucrose as substrate. How it is done:
Assay for Determination of Inhibition of Rat Intestinal Alpha-Glucosidases
Various concentrations of test compounds were prepared in DMSO and then diluted into buffer consisting of 100 mM citric acid, 200 mM disodium phosphate, pH 6.0. Rat intestinal acetone powder (Sigma) was dissolved to 12.5 mg/mL in assay buffer and sonicated in an ice bath, centrifuged, and the supernatant was collected, aliquoted and stored at −20° C. until use. On the day of the assay, the rat intestinal lysate was diluted to 6.25 mg/mL (sucrose reactions) and 2.1 mg/ml (maltose reactions) in assay buffer. The final reaction solutions for sucrose contained 2.1 mg/mL rat intestinal lysate, 40 mM sucrose, 50 or 25 μM of test compound, and 3.3% DMSO. The final reaction solution for maltose contained 0.69 mg/mL rat intestinal lysate, 10 mM maltose, 50 or 25 μM of test compound, and 3.3% DMSO. The reaction was initiated by the addition of substrate (sucrose or maltose) and allowed to proceed at 37° C. for 20 min to assess rat intestinal alpha-glycosidase activities. The reaction was stopped by addition of 20 μL of 2 M Tris-HCl, pH 7.0. The glucose produced during the reaction was detected using a commercial Amplex Red glucose detection kit from Thermo Fisher. For a full plate, the Amplex Red detection mixture was prepared by mixing 35 μL glucose oxidase, 35 μL horseradish peroxidase and 35 μL Amplex Red into 3395 μL 1× Amplex Red detection buffer. A total of 30 μL of detection mixture was added to each well. Fluorescence was measured in kinetic mode on a Biotek Synergy H4 plate reader at a wavelength of 573 nm for excitation and 610 nm for emission for 15 min and quantified from the data at 10 min. Incubations without added rat intestinal lysate were used to correct for the background amount of glucose present in the samples. Incubations without added test compound were used to define maximal enzyme activity. Percent inhibition of rat intestinal alpha-glucosidases was determined by dividing the amount of glucose detected in the presence of test compound by the amount of glucose detected in the maximal enzyme activity wells. All conditions were analyzed in triplicate. […] The final reaction solutions were the same as described above for the Amplex Red Detection kit. After a 20 min reaction time at 37° C., 100 μL of hexokinase glucose reagent was added to all test wells except for the no enzyme added control wells and no test compound added wells. The plate was incubated for a further 15 min at room temperature and the absorbance was read at 340 nm on a Biotek Synergy H4 plate reader. The percent inhibition of rat intestinal alpha-glucosidases was determined in a similar manner as described above.

A further assay deals with GBA2 (Homo sapiens (Human), UniProt Q9HCG7). The experiment in a line: Inhibition of GBA2 in cell lysate (4-methylumbelliferone glucopyranoside substrate).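 Note: homogenate of stably transfected HEK293T cells pre-treated with a GCase inhibitor, test compound preincubated 5 min at 37 °C, substrate reaction 20 min at 37 °C.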 It is filed as biochemical. Conditions: HEK293T-overexpressing GBA2 cellular homogenate, pH 5.5; read-out: GBA2 IC50.
Sequence of GBA2 (Q9HCG7 whole entry): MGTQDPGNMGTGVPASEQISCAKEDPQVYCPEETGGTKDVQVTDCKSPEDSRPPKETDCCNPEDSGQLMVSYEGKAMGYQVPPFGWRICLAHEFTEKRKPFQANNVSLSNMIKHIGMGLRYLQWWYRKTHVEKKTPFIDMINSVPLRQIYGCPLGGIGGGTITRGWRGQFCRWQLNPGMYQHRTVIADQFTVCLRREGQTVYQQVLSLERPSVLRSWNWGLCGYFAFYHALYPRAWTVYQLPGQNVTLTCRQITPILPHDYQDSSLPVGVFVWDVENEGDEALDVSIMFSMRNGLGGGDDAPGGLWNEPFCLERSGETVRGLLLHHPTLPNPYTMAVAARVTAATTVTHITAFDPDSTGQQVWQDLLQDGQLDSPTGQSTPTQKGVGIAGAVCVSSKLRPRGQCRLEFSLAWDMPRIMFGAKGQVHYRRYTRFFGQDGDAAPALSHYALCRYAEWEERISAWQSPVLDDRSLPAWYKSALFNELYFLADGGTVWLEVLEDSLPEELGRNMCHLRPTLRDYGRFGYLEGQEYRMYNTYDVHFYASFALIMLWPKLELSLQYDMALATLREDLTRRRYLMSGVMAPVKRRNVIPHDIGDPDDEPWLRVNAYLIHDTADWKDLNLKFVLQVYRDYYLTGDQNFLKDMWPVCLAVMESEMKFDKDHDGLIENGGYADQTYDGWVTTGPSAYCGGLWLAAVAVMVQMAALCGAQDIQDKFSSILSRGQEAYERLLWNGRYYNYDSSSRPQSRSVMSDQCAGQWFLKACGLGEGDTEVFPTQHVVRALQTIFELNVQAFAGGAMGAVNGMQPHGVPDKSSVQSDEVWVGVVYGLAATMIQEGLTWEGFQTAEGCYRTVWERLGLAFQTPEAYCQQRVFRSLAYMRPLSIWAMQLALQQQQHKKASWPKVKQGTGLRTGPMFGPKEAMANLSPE

pIC50: −log10 of the molar value.

For the molecule `O[C@H]1[C@H](O)CN(Cc2ccc(OCC3CC3)cc2)C[C@@H]1O` [Example 200, (3S,4r,5R)-1-(4-(cyclopropylmethoxy)benzyl)piperidine-3,4,5-triol], in assay [1], the “rat α-glu. (% inhib.)” value is on record as 7%. Also, the pIC50 at GBA2 was > 7.00.
For `O[C@H]1[C@H](O)CN(C[C@@H]2CCN(c3cncnc3C(F)(F)F)C2)C[C@@H]1O` [Example 26, (3S,4S,5R)-1-(((S)-1-(4-(trifluoromethyl)pyrimidin-5-yl)pyrrolidin-3-yl)methyl)piperidine-3,4,5-triol] the same measures were 0% and > 7.00.
In the case of `O[C@H]1[C@H](O)CN(C[C@H]2CCCN(c3ccnc(C(F)(F)F)c3)C2)C[C@@H]1O` [Example 173, (3S,4R,5R)-1-(((R)-1-(2-(trifluoromethyl)pyridin-4-yl)piperidin-3-yl)methyl)piperidine-3,4,5-triol], in assay [1], the “rat α-glu. (% inhib.)” value is 3%. For the same molecule, the pIC50 at GBA2 is > 7.00.
On the same counts, the results for `O[C@H]1[C@H](O)CN(CC2Cc3c(F)ccc(F)c3C2)C[C@@H]1O` [Example 190, (3S,4r,5R)-1-((4,7-difluoro-2,3-dihydro-1H-inden-2-yl)methyl)piperidine-3,4,5-triol] are 4% and > 7.00.
On the same counts, the results for `O[C@H]1[C@H](O)CN(C[C@H]2CC[C@H](C(F)F)CC2)C[C@@H]1O` [Example 185, (3S,4R,5R)-1-(((1r,4R)-4-(difluoromethyl)cyclohexyl)methyl)piperidine-3,4,5-triol] are 3% and 6.00 to 7.00.
On to `O[C@H]1[C@H](O)CN(C[C@@H]2CCN(c3nc(C(F)(F)F)cs3)C2)C[C@@H]1O` [Example 27, (3S,4S,5R)-1-(((S)-1-(4-(trifluoromethyl)thiazol-2-yl)pyrrolidin-3-yl)methyl)piperidine-3,4,5-triol], for which, in assay [1], the “rat α-glu. (% inhib.)” value is reported as 2%. Further, at GBA2, the pIC50 is > 7.00.
Consider `O[C@H]1[C@H](O)CN(CCCC2CCCCC2)C[C@@H]1O` [Example 5, (3S,4r,5R)-1-(3-cyclohexylpropyl)piperidine-3,4,5-triol], for which, in assay [1], the “rat α-glu. (% inhib.)” value turned out to be 10%. The pIC50 at GBA2 is > 7.00.
For `O[C@H]1[C@H](O)CN(C[C@H]2CCCN(c3ccc(C(F)(F)F)nc3)C2)C[C@@H]1O` [Example 171, (3S,4R,5R)-1-(((R)-1-(6-(trifluoromethyl)pyridin-3-yl)piperidin-3-yl)methyl)piperidine-3,4,5-triol] the same measures were 1% and > 7.00.
On the same counts, the results for `O[C@H]1[C@H](O)CN(CCC2CCCCC2)C[C@@H]1O` [Example 4, (3S,4r,5R)-1-(2-cyclohexylethyl)piperidine-3,4,5-triol] are 14% and > 7.00.
On to `CC(CCc1cccc(Cl)c1F)N1C[C@@H](O)[C@H](O)[C@@H](O)C1` (stereo partly drawn) [Example 17, (3S,4r,5R)-1-(4-(3-chloro-2-fluorophenyl)butan-2-yl)piperidine-3,4,5-triol], for which the “rat α-glu. (% inhib.)” value in assay [1] was found to be 0%. Moreover, the pIC50 at GBA2 is 6.00 to 7.00.
For `O[C@H]1[C@H](O)CN(C[C@H]2CCCN(c3ccncc3C(F)(F)F)C2)C[C@@H]1O` [Example 172, (3S,4R,5R)-1-(((R)-1-(3-(trifluoromethyl)pyridin-4-yl)piperidin-3-yl)methyl)piperidine-3,4,5-triol] the same measures were 15% and > 7.00.
As for `O[C@H]1[C@H](O)CN(C[C@@H]2CCCN(c3cncc(C(F)(F)F)c3)C2)C[C@@H]1O` [Example 175, (3S,4S,5R)-1-(((S)-1-(5-(trifluoromethyl)pyridin-3-yl)piperidin-3-yl)methyl)piperidine-3,4,5-triol], the “rat α-glu. (% inhib.)” value in assay [1] came to 3%. In addition, on GBA2, the pIC50 is 6.00 to 7.00.
For `O[C@H]1[C@H](O)CN(C[C@@H]2CCCN(c3cc(C(F)(F)F)ccn3)C2)C[C@@H]1O` [Example 176, (3S,4S,5R)-1-(((S)-1-(4-(trifluoromethyl)pyridin-2-yl)piperidin-3-yl)methyl)piperidine-3,4,5-triol] the same measures were 0% and 6.00 to 7.00.
As to `O[C@H]1[C@H](O)CN(C[C@@H]2CCN(c3ncccc3C(F)(F)F)C2)C[C@@H]1O` [Example 24, (3S,4S,5R)-1-(((S)-1-(3-(trifluoromethyl)pyridin-2-yl)pyrrolidin-3-yl)methyl)piperidine-3,4,5-triol], the “rat α-glu. (% inhib.)” value in assay [1] was found to be 3%. Also, the negative-log IC50 (pIC50) on GBA2 was > 7.00.
On the same counts, the results for `O[C@H]1[C@H](O)CN(C[C@@H]2CCN(c3ccc(C(F)(F)F)nc3)C2)C[C@@H]1O` [Example 162, (3S,4S,5R)-1-(((S)-1-(6-(trifluoromethyl)pyridin-3-yl)pyrrolidin-3-yl)methyl)piperidine-3,4,5-triol] are 0% and > 7.00.
For `O[C@H]1[C@H](O)CN(CCc2ccc(Cl)c(Cl)c2)C[C@@H]1O` [Example 8, (3S,4r,5R)-1-(3,4-dichlorophenethyl)piperidine-3,4,5-triol] the same measures were 0% and > 7.00.
In the case of `O[C@H]1[C@H](O)CN(Cc2cccs2)C[C@@H]1O` [Example 205, (3S,4r,5R)-1-(thiophen-2-ylmethyl)piperidine-3,4,5-triol], the “rat α-glu. (% inhib.)” value in assay [1] came out at 4%. In addition, the pIC50 on GBA2 is 4.60 to 6.00.
For `CC(C)c1cnc(N2CCC[C@H](CN3C[C@@H](O)[C@H](O)[C@@H](O)C3)C2)s1` [Example 32, (3S,4R,5R)-1-(((R)-1-(5-isopropylthiazol-2-yl)piperidin-3-yl)methyl)piperidine-3,4,5-triol] the same measures were 2% and > 7.00.
Regarding `O[C@H]1[C@H](O)CN(C[C@@H]2CCN(c3ccc(C(F)(F)F)cn3)C2)C[C@@H]1O` [Example 161, (3S,4S,5R)-1-(((S)-1-(5-(trifluoromethyl)pyridin-2-yl)pyrrolidin-3-yl)methyl)piperidine-3,4,5-triol], the “rat α-glu. (% inhib.)” value in assay [1] is listed as 0%. For the same molecule, at GBA2, the pIC50 is > 7.00.
Turning to `O[C@H]1[C@H](O)CN(C[C@H]2CCCN(c3ccc(C(F)(F)F)cn3)C2)C[C@@H]1O` [Example 170, (3S,4R,5R)-1-(((R)-1-(5-(trifluoromethyl)pyridin-2-yl)piperidin-3-yl)methyl)piperidine-3,4,5-triol], the “rat α-glu. (% inhib.)” value in assay [1] was 14%. Further, the pIC50 on GBA2 was > 7.00.
On the same counts, the results for `O[C@H]1[C@H](O)CN(C[C@@H]2CCCN(c3cccnc3C(F)(F)F)C2)C[C@@H]1O` [Example 174, (3S,4S,5R)-1-(((S)-1-(2-(trifluoromethyl)pyridin-3-yl)piperidin-3-yl)methyl)piperidine-3,4,5-triol] are 3% and > 7.00.
With `O[C@H]1[C@H](O)CN(C[C@H]2CC[C@H](OC(F)(F)F)CC2)C[C@@H]1O` [Example 189, (3S,4R,5R)-1-(((1r,4R)-4-(trifluoromethoxy)cyclohexyl)methyl)piperidine-3,4,5-triol], in assay [1], the “rat α-glu. (% inhib.)” value amounted to 3%. Further, at GBA2, the pIC50 is > 7.00.
On the same counts, the results for `O[C@H]1[C@H](O)CN(CC2(F)CCN(c3ncccc3C(F)(F)F)CC2)C[C@@H]1O` [Example 194, (3S,4r,5R)-1-((4-fluoro-1-(3-(trifluoromethyl)pyridin-2-yl)piperidin-4-yl)methyl)piperidine-3,4,5-triol] are 4% and > 7.00.
As to `O[C@H]1[C@H](O)CN(C[C@H]2CCN(c3ncccc3C(F)(F)F)C2)C[C@@H]1O` [Example 19, (3S,4R,5R)-1-(((R)-1-(3-(trifluoromethyl)pyridin-2-yl)pyrrolidin-3-yl)methyl)piperidine-3,4,5-triol], the “rat α-glu. (% inhib.)” value in assay [1] is on record as 6%. The pIC50 at GBA2 was > 7.00.
On the same counts, the results for `O[C@H]1[C@H](O)CN(CC2(F)CCN(c3ccc(F)cc3)CC2)C[C@@H]1O` [Example 192, (3S,4r,5R)-1-((4-fluoro-1-(4-fluorophenyl)piperidin-4-yl)methyl)piperidine-3,4,5-triol] are 2% and 6.00 to 7.00.
As to `CC(F)(F)[C@H]1CC[C@H](CN2C[C@@H](O)[C@H](O)[C@@H](O)C2)CC1` [Example 188, (3S,4R,5R)-1-(((1r,4R)-4-(1,1-difluoroethyl)cyclohexyl)methyl)piperidine-3,4,5-triol], the “rat α-glu. (% inhib.)” value in assay [1] stood at 10%. In addition, the pIC50 on GBA2 was > 7.00.
